Experimental findings from US12151028B2, “Drug delivery systems comprising solid solutions of weakly basic drugs” (Adare Pharmaceuticals, Inc., priority 2006, dated 2024) are described below.

Each structure is given as a SMILES string. In brackets after ≈: the same amount, converted by molar mass. Where a name gives a salt, the structure may show the parent alone. Read-outs that look alike come from different tables or passages of the source.

Data set [1] is described as follows: Intrinsic dissolution rate measurements. The class given is physicochemical. The conditions noted are these: crystalline polymorphs (Polymorph I, Polymorph II). As for the experimental part:
Intrinsic dissolution rates were determined for two different polymorphs of lercanidipine hydrochloride as well as amorphous materials (e.g., amorphous drug and 1:2 solid solutions of lercanidipine hydrochloride with Methocel E5 and Kollidon VA 64).

Data set [2] can be described thus: Turbidity measurements (transmittance of drug/polymer solutions in pH 6.0 buffer). The conditions noted are these: buffer pH 6.0 containing Kollidon VA 64, Methocel E5, PEG 6000, cyclodextrin or Kollidon 14 PF; drug:polymer 1:2. In kind it is physicochemical. As for the experimental part:
A concentrated solution (3 mL) of lercanidipine hydrochloride in acetone (0.5 mg/ml) was added to 200 mL of a buffer solution (pH 6.0) containing Kollidon VA 64, Methocel E5 (hypromellose), polyethylene glycol (PEG 6000), cyclodextrin or Kollidon 14 PF (polyvinyl pyrrolidone) at the ratio of 1:2 by weight with respect to the polymer.

For `Cc1nccn1CC1CCc2c(c3ccccc3n2C)C1=O` (centres unmarked) [Ondansetron Hydrochloride, ondansetron hydrochloride], the “Solubility of Ondansetron Hydrochloride in Fumaric Acid” value reads like this: (fumaric acid 0.25 mg/mL, start pH 2.79, end pH 2.75) 26.2 mg/mL; (pH 2.13) 26.9 mg/mL; (pH 3.49) “about 26 mg/mL”.

Regarding `COC(=O)C1=C(C)NC(C)=C(C(=O)OC(C)(C)CN(C)CCC(c2ccccc2)c2ccccc2)C1c1cccc([N+](=O)[O-])c1` (centres unmarked) [lercanidipine hydrochloride], the “Intrinsic dissolution rate and extent of dissolution” value in data set [1] was “poor dissolution rates”. Moreover, in data set [2], the “Stability of drug solution against crystallization (turbidity)” value is given as “improved stability”.

For the compound `O=C1CN=C(c2ccccc2Cl)c2cc([N+](=O)[O-])ccc2N1` [Clonazepam, clonazepam], the solubility (usually the concentration that dissolves in the medium under given conditions) in “physchem” (pH 2.84, aqueous buffer) is 0.029 mg/mL (≈ 91.9 µM); in the data set “physchem” (pH 2.92, aqueous buffer), 0.023 mg/mL (≈ 72.9 µM); in “physchem” (pH 3, aqueous buffer), 0.022 mg/mL (≈ 69.7 µM); in the data set “physchem” (pH 3.32, aqueous buffer), 0.021 mg/mL (≈ 66.5 µM); in the data set “physchem” (pH 4.21, aqueous buffer) it was 0.018 mg/mL (≈ 57 µM); in “physchem” (pH 6.39, aqueous buffer), 0.018 mg/mL (≈ 57 µM).
